Key:
Assay type in all cases: in vivo
[1] = test system: pigweed (Amaranthus retroflexus); test: Test A greenhouse herbicide test, pre- and postemergence
Outline: (§1)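 Seeds in loam–sand blend received a preemergence directed soil spray; plants at 2–10 cm, one- to two-leaf stage, received postemergence sprays. Compounds in a non-phytotoxic solvent with surfactant. After about 10 d in a greenhouse, injury rated visually versus untreated controls on a 0–100 scale (100 = complete control).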

[2] = test system: ryegrass, Italian (Italian ryegrass, Lolium multiflorum); test: as above
Outline: as §1

[3] = test system: wheat (Triticum aestivum); test: as above; details: Postemergence; for Plant response rating, Wheat: 125 g ai/ha; for Wheat plant response rating: 500 g ai/ha, 0 to 100 scale, 0 is no effect, 100 is complete control
Outline: as §1

[4] = test system: blackgrass (Alopecurus myosuroides); test: Test A greenhouse herbicide test, postemergence; details: for Plant response rating, Blackgrass: 125 g ai/ha, visual rating after approx. 10 d, 0 to 100 scale (0 no effect, 100 complete control); for Blackgrass plant response rating: 500 g ai/ha, 0 to 100 scale, 0 is no effect, 100 is complete control
Outline: (§2)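 Visual injury score, 0 (no effect) to 100 (complete control), versus untreated controls roughly 10 d after postemergence spray; plants at one- to two-leaf stage, 2 to 10 cm tall, in loam soil and sand, kept in greenhouse.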

[5] = test system: galium (catchweed bedstraw, Galium aparine); test: Test A greenhouse herbicide test, postemergence; details: for Plant response rating, Galium: 125 g ai/ha, visual rating after approx. 10 d, 0 to 100 scale (0 no effect, 100 complete control); for Galium plant response rating: 500 g ai/ha, 0 to 100 scale, 0 is no effect, 100 is complete control
Outline: as §2

[6] = test system: oilseed rape (Brassica napus); test: Test C greenhouse herbicide test, pre- and postemergence
Text: (§3) Seeds of plant species selected from blackgrass (Alopecurus myosuroides), ryegrass, Italian (Italian ryegrass, Lolium multiflorum), wheat (winter wheat, Triticum aestivum), galium (catchweed bedstraw, Galium aparine), corn (Zea mays), large crabgrass, large (large crabgrass, Digitaria sanguinalis), foxtail, giant (giant foxtail, Setaria faberii), johnsongrass (Sorghum halepense), lambsquarters (Chenopodium album), morningglory (Ipomoea coccinea), nutsedge, yellow (yellow nutsedge, Cyperus esculentus), pigweed (Amaranthus retroflexus), ragweed (common ragweed, Ambrosia elatior), soybean (Glycine max), barnyardgrass (Echinochloa crus-galli), oilseed rape (Brassica napus), waterhemp (common waterhemp, Amaranthus rudis), and velvetleaf (Abutilon theophrasti) were planted into a blend of loam soil and sand and treated preemergence with test chemicals formulated in a non-phytotoxic solvent mixture which included a surfactant.
(§4) At the same time, plants selected from these crop and weed species and also chickweed (common chickweed, Stellaria media), kochia (Kochia scoparia), and oat, wild (wild oat, Avena fatua), were planted in pots containing Redi-Earth® planting medium (Scotts Company, 14111 Scottslawn Road, Marysville, Ohio 43041) comprising spaghnum peat moss, vermiculite, wetting agent and starter nutrients and treated with postemergence applications of test chemicals formulated in the same manner. Plants ranged in height from 2 to 18 cm (1- to 4-leaf stage) for postemergence treatments. Treated plants and controls were maintained in a greenhouse for 13 to 15 d, after which time all species were compared to controls and visually evaluated. Plant response ratings, summarized in Table C, are based on a scale of 0 to 100 where 0 is no effect and 100 is complete control. A dash (-) response means no test result.

[7] = test system: pigweed (Amaranthus retroflexus); test: as above
Text: as §3, §4

[8] = test system: waterhemp (common waterhemp, Amaranthus rudis); test: as above
Text: as §3, §4

[9] = test system: morningglory (Ipomoea coccinea); test: as above
Text: as §3, §4

[10] = test system: lambsquarters (Chenopodium album); test: as above
Text: as §3, §4

[11] = test system: ragweed (common ragweed, Ambrosia elatior); test: as above
Text: as §3, §4

[12] = Postemergence, 125 g ai/ha, visual rating after approx. 10 d, 0 to 100 scale (0 no effect, 100 complete control)
[13] = Postemergence, 500 g ai/ha, 0 to 100 scale, 0 is no effect, 100 is complete control
[14] = Preemergence, 125 g ai/ha, 0 to 100 scale where 0 is no effect and 100 is complete control
[15] = Preemergence, 500 g ai/ha, 0 to 100 scale, 0 no effect, 100 complete control
[16] = Postemergence, 31 g ai/ha, 0 to 100 scale (0 no effect, 100 complete control)
[17] = Postemergence, 125 g ai/ha, scale 0 to 100, 0 is no effect, 100 is complete control
[18] = Postemergence, 250 g ai/ha, scale 0 to 100, 0 no effect, 100 complete control, 13 to 15 d
[19] = Preemergence, 31 g ai/ha, scale 0 to 100, 0 is no effect, 100 is complete control
[20] = Preemergence, 62 g ai/ha, scale 0 to 100, 0 is no effect, 100 is complete control
[21] = Preemergence, 125 g ai/ha, scale 0 to 100, 0 is no effect, 100 is complete control
[22] = Preemergence, 250 g ai/ha, scale 0 to 100, 0 no effect, 100 complete control
[23] = postemergence, 62 g ai/ha, scale 0 to 100, 0 no effect, 100 complete control

Structure (SMILES): Cc1ccc2ccccc2c1-c1c(O)c(Br)nn(C)c1=O [Compound 23]
- Plant response rating, Pigweed [1, 12]: 100
- Pigweed plant response rating [1, 13]: 100
- Pigweed plant response rating [1, 14]: 100
- Plant response rating, Pigweed [1, 15]: 100
- Plant response rating, Ryegrass, Italian [2, 12]: 100
- Ryegrass, Italian plant response rating [2, 13]: 100
- Ryegrass, Italian plant response rating [2, 14]: 80
- Plant response rating, Ryegrass, Italian [2, 15]: 90
- Plant response rating, Wheat ([3]; visual rating after approx. 10 d, 0 to 100 scale (0 no effect, 100 complete control)): 50
- Wheat plant response rating [3]: 80
- Plant response rating, Blackgrass [4]: 70
- Blackgrass plant response rating [4]: 80
- Plant response rating, Galium [5]: 100
- Galium plant response rating [5]: 100
- Oilseed Rape plant response rating [6, 16]: 5
- Plant response rating, Oilseed Rape [6, 17]: 45
- Plant response rating, Oilseed Rape [6, 18]: 10
- Plant response rating, Oilseed Rape [6, 19]: 50
- Plant response rating, Oilseed Rape [6, 20]: 90
- Plant response rating, Oilseed Rape [6, 21]: 90
- Oilseed Rape plant response rating [6, 22]: 100
- Oilseed Rape plant response rating [6, 23]: 15
- Pigweed plant response rating [7, 16]: 90
- Plant response rating, Pigweed [7, 17]: 98
- Plant response rating, Pigweed [7, 18]: 98
- Plant response rating, Pigweed [7, 19]: 100
- Plant response rating, Pigweed [7, 20]: 100
- Plant response rating, Pigweed [7, 21]: 100
- Pigweed plant response rating [7, 22]: 100
- Pigweed plant response rating [7, 23]: 98
- Waterhemp plant response rating [8, 16]: 80
- Plant response rating, Waterhemp [8, 17]: 85
- Plant response rating, Waterhemp [8, 18]: 98
- Plant response rating, Waterhemp [8, 20]: 100
- Plant response rating, Waterhemp [8, 21]: 100
- Waterhemp plant response rating [8, 22]: 100
- Waterhemp plant response rating [8, 23]: 55
- Morningglory plant response rating [9, 16]: 100
- Plant response rating, Morningglory [9, 17]: 100
- Plant response rating, Morningglory [9, 18]: 100
- Plant response rating, Morningglory [9, 19]: 85
- Plant response rating, Morningglory [9, 20]: 90
- Plant response rating, Morningglory [9, 21]: 95
- Morningglory plant response rating [9, 22]: 98
- Morningglory plant response rating [9, 23]: 100
- Lambsquarters plant response rating [10, 16]: 85
- Plant response rating, Lambsquarters [10, 17]: 95
- Plant response rating, Lambsquarters [10, 18]: 98
- Plant response rating, Lambsquarters [10, 19]: 85
- Plant response rating, Lambsquarters [10, 20]: 85
- Plant response rating, Lambsquarters [10, 21]: 95
- Lambsquarters plant response rating [10, 22]: 95
- Lambsquarters plant response rating [10, 23]: 95
- Ragweed plant response rating [11, 16]: 85
- Plant response rating, Ragweed [11, 17]: 95
- Plant response rating, Ragweed [11, 18]: 98
- Plant response rating, Ragweed [11, 19]: 85
- Plant response rating, Ragweed [11, 20]: 85
- Plant response rating, Ragweed [11, 21]: 95
- Ragweed plant response rating [11, 22]: 90
- Ragweed plant response rating [11, 23]: 90

Structure (SMILES): Cc1ccc2sc(C)c(-c3c(OC(=O)C(C)(C)C)c(C)nn(C)c3=O)c2c1 [Compound 26]
- Plant response rating, Pigweed [1, 12]: 80
- Pigweed plant response rating [1, 13]: 90
- Pigweed plant response rating [1, 14]: 80
- Plant response rating, Pigweed [1, 15]: 100
- Plant response rating, Ryegrass, Italian ([2]; Postemergence, 125 g ai/ha, 0 to 100 scale where 0 is no effect and 100 is complete control): 60
- Ryegrass, Italian plant response rating [2, 13]: 90
- Ryegrass, Italian plant response rating [2, 14]: 30
- Plant response rating, Ryegrass, Italian [2, 15]: 70
- Plant response rating, Wheat ([3]; 0 to 100 scale where 0 is no effect and 100 is complete control): 0
- Wheat plant response rating [3]: 0
- Plant response rating, Blackgrass [4]: 30
- Blackgrass plant response rating [4]: 70
- Plant response rating, Galium [5]: 70
- Galium plant response rating [5]: 90
- Oilseed Rape plant response rating [6, 16]: 0
- Plant response rating, Oilseed Rape [6, 17]: 5
- Plant response rating, Oilseed Rape [6, 18]: 5
- Oilseed Rape plant response rating [6, 23]: 0
- Pigweed plant response rating [7, 16]: 75
- Plant response rating, Pigweed [7, 17]: 98
- Plant response rating, Pigweed [7, 18]: 95
- Pigweed plant response rating [7, 23]: 85
- Waterhemp plant response rating [8, 16]: 75
- Plant response rating, Waterhemp [8, 17]: 85
- Plant response rating, Waterhemp [8, 18]: 95
- Waterhemp plant response rating [8, 23]: 85
- Morningglory plant response rating [9, 16]: 98
- Plant response rating, Morningglory [9, 17]: 100
- Plant response rating, Morningglory [9, 18]: 100
- Morningglory plant response rating [9, 23]: 100
- Lambsquarters plant response rating [10, 16]: 75
- Plant response rating, Lambsquarters [10, 17]: 90
- Plant response rating, Lambsquarters [10, 18]: 98
- Lambsquarters plant response rating [10, 23]: 85
- Ragweed plant response rating [11, 16]: 15
- Plant response rating, Ragweed [11, 17]: 85
- Plant response rating, Ragweed [11, 18]: 90
- Ragweed plant response rating [11, 23]: 70

From patent US10597388B2, “Pyridazinone herbicides” (FMC CORPORATION, priority 2014, dated 2020)
